“And” between values parts separate entries of the source, which are not always exact repeats. Identical values can stand only once. Like-named read-outs stand apart in the source and are kept apart here.
Assays:
[1] = test system: p-CREB (phosphorylated cAMP response-element binding protein) in human whole blood; experiment: p-CREB assay in human whole blood by flow cytometry (NECA stimulation, CD4 staining); assay type: cell-based
Experimental: Assay protocol for p-CREB (phosphorylated cAMP response-element binding protein) in human whole blood by flow cytometry
Fresh human whole blood (Biological Specialty Corporation) was added at 100 ul per wellinto a 96-well plate and treated with test compounds (Serial dilutions of 1:3 with starting concentration at 30 uM, 11 concentrations total, in the presence of adenosine deaminase) for one hour at room temperature on a plate shaker. Then 10 ul of 10× NECA (50 uM stock in PBS) and 10 ul of 10 × Rolipram (50 uM stock in PBS) were added, with designated wells for unstimulated (Rolipram+DMSO) and stimulated (Rolipram+NECA+DMSO) conditions. The plates were mixed well and incubated at room temperature for 30 min on a plate shaker. 1× lyse/Fix buffer (5× stock, BD #558049) was warmed to 37° in a water bath. 1200 ul of pre-warmed 1× lyse/Fix buffer was then added to the plate, which was then sealed and mixed by inverting the plate a few times. The plate was then incubated for 30 min at 37° in a water bath. After incubation, the plate was centrifuged at 1600 rpm for 5 min and the supernatant was decanted, then 1200 ul PBS was added and the plate was mixed by inverting a few times followed by centrifuging at 1600 rpm for 5 min and again decanting the supernatant. Then, 200 ul FIX PERM buffer II (BD #558052) was added and the plate was mixed well, then kept on ice for 45 min After spinning the plate at 1600 rpm for 5 min the supernatant was again decanted. Then was added 200 ul staining buffer (BD #554657), and the plate was mixed well and spun at 1600 rpm for 5 min, then the supernatant was again decanted. 200 ul staining buffer was added, the plate was mixed well and the plate was sealed at this step for storage at 4° overnight or until staining. Before staining, the plate was spun at 1600 rpm for 5 min and the supernatant was again decanted. Antibody mix in staining buffer was prepared (75 ul/well, 1:50 dilution for p-CREB antibody from Cell Signaling Tech #14001S, 1:200 dilution for CD4 antibody from BD #566320) and the cells were resuspended in the above antibody mix solution. After mixing well, the plate was incubated (shielded from light) at room temperature for two hours on a plate shaker. It was then spun at 1600 rpm for 5 min and the supernatant was decanted. 200 ul staining buffer was then added to wash cells, and the plate was then mixed by shaking or pipetting. The wash step was repeated at least one more time, and after the final wash, cells were resusptended in 200 ul staining buffer in U bottom plate for flow cytometry analysis.

Adenosine A2A receptor = Adenosine A2A receptor (Homo sapiens, UniProt P29274); experiment: cAMP assay in 293A cells stably expressing the adenosine A2A receptor (CGS21680 stimulation, HTRF); assay type: cell-based; parameters: expressed in transfected cells; host or cells: 293A cells (Invitrogen, Cat# R705-07) infected with A2A-expressing lentivirus (custom packaged by Biosettia), puromycin selected; settings: 0.1% BSA, read-out: cAMP (nM) 0.1% BSA, 1 uM CGS
[2] = Homo sapiens, replicate values separated by /
[3] = replicate values separated by /
[4] = 293A cells stably expressing A2A receptor, 1 uM CGS21680 stimulation, replicate values separated by /

Adenosine A2A receptor, sequence (P29274 whole entry): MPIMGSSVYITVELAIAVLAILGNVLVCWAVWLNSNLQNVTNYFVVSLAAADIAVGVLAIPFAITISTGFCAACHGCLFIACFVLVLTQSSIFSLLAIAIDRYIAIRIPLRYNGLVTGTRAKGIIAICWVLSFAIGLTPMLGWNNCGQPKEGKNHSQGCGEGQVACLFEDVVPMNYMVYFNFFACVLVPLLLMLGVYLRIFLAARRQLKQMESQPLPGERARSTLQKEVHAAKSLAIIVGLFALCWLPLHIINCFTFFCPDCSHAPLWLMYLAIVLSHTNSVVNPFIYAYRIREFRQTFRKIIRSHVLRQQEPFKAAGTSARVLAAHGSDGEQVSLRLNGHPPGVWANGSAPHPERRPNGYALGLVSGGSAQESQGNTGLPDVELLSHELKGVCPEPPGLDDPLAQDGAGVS

Row | Structure (SMILES) | IC50 ([1]; Homo sapiens) [nM] | IC50 (Adenosine A2A receptor; 293A-A2AR cells, 1 uM CGS) | IC50 [1, 2] [nM] | IC50 [1, 3] [nM] | IC50 (Adenosine A2A receptor; [4])
1 | Cc1cc(-c2c(OCc3cccc(C4(C(=O)O)CCC4)n3)nc(N)nc2-c2ccc(F)cc2)cc(C(F)F)n1 [Example 392, 1-(6-(((2-amino-5-(2-(difluoromethyl)-6-methylpyridin-4-yl)-6-(4-fluorophenyl)pyrimidin-4-yl)oxy)methyl)pyridin-2-yl)cyclobutane-1-carboxylic acid] | 353 | 186 nM and 139 nM and 180 nM and 209 nM | – | – | –
2 | Cc1cc(-c2c(OCc3cccc(N(CCO)CCO)n3)nc(N)nc2-c2ccc(F)cc2)cc(C(F)F)n1 [Example 402, 2,2′-((6-(((2-amino-5-(2-(difluoromethyl)-6-methylpyridin-4-yl)-6-(4-fluorophenyl)pyrimidin-4-yl)oxy)methyl)pyridin-2-yl)azanediyl)bis(ethan-1-ol)] | – | – | 692 | – | 515 nM and 579 nM and 560 nM
3 | CNCc1cccc(COc2nc(N)nc(-c3ccc(F)cc3)c2-c2cc(C)nc(C(F)F)c2)n1 [Example 403, 5-(2-(difluoromethyl)-6-methylpyridin-4-yl)-4-(4-fluorophenyl)-6-((6-((methylamino)methyl)pyridin-2-yl)methoxy)pyrimidin-2-amine] | – | – | 108 | – | 249 nM and 322 nM and 311 nM
4 | Cc1cc(-c2c(OCCN3CCCc4cccnc43)nc(N)nc2-c2ccc(F)cc2)cc(C(F)F)n1 [Example 408, 5-(2-(difluoromethyl)-6-methylpyridin-4-yl)-4-(2-(3,4-dihydro-1,8-naphthyridin-1 (2H)-yl)ethoxy)-6-(4-fluorophenyl)pyrimidin-2-amine] | – | – | 37.9 | – | 68 nM and 41 nM and 19 nM and 74 nM
5 | COC(=O)NCc1cccc(COc2nc(N)nc(-c3ccc(F)cc3)c2-c2cc(C)nc(C(F)F)c2)n1 [Example 410, methyl((6-(((2-amino-5-(2-(difluoromethyl)-6-methylpyridin-4-yl)-6-(4-fluorophenyl)pyrimidin-4-yl)oxy)methyl)pyridin-2-yl)methyl)carbamate] | – | – | 20 | – | 97 nM and 142 nM and 124 nM and 178 nM
6 | Cc1cc(-c2c(OCc3ccnc(N)n3)nc(N)nc2-c2ccc(F)cc2)cc(C(F)F)n1 [Example 413, 4-((2-aminopyrimidin-4-yl)methoxy)-5-(2-(difluoromethyl)-6-methylpyridin-4-yl)-6-(4-fluorophenyl)pyrimidin-2-amine] | – | – | 50.2 | 40.8 | 4.5 nM and 19 nM and 14 nM
7 | Cc1cc(-c2c(OCc3cccc(OC(CO)CO)n3)nc(N)nc2-c2ccc(F)cc2)cc(C(F)F)n1 [Example 420] | – | – | 55.7 | – | 122 nM and 112 nM
8 | Cc1cc(-c2c(OCc3cccc(COC(N)=O)n3)nc(N)nc2-c2ccc(F)cc2)cc(C(F)F)n1 [Example 429, (6-(((2-amino-5-(2-(difluoromethyl)-6-methylpyridin-4-yl)-6-(4-fluorophenyl)pyrimidin-4-yl)oxy)methyl)pyridin-2-yl)methyl carbamate] | – | – | 33 | – | 59 nM and 43 nM
9 | Cc1cc(-c2c(OCc3cccc(C(C#N)(CCO)CCO)n3)nc(N)nc2-c2ccc(F)cc2)cc(C(F)F)n1 [Example 431, 2-(6-(((2-amino-5-(2-(difluoromethyl)-6-methylpyridin-4-yl)-6-(4-fluorophenyl)pyrimidin-4-yl)oxy)methyl)pyridin-2-yl)-4-hydroxy-2-(2-hydroxyethyl)butanenitrile] | – | – | 2000 | – | 412 nM and 315 nM and 310 nM

The remaining molecules from weak to strong by IC50 [1, 2], led by results:

Row | IC50 ([1]; Homo sapiens) [nM] | IC50 (Adenosine A2A receptor; 293A-A2AR cells, 1 uM CGS) | IC50 [1, 2] [nM] | IC50 [1, 3] [nM] | IC50 (Adenosine A2A receptor; [4]) | Structure (SMILES)
10 | – | – | 424 | – | 432 nM and 338 nM | Cc1cc(-c2c(OCc3ccc(=O)n(C)n3)nc(N)nc2-c2ccc(F)cc2)cc(C(F)F)n1 [Example 422, 6-(((2-amino-5-(2-(difluoromethyl)-6-methylpyridin-4-yl)-6-(4-fluorophenyl)pyrimidin-4-yl)oxy)methyl)-2-methylpyridazin-3(2H)-one]
11 | – | – | 201 | – | 273 nM and 362 nM and 482 nM and 440 nM | Cc1cc(-c2c(OCc3cccc(-c4nn[nH]n4)n3)nc(N)nc2-c2ccc(F)cc2)cc(C(F)F)n1 [Example 399, 4-((6-(2H-tetrazol-5-yl)pyridin-2-yl)methoxy)-5-(2-(difluoromethyl)-6-methylpyridin-4-yl)-6-(4-fluorophenyl)pyrimidin-2-amine]
12 | – | – | 91.5 | – | 107 nM and 88 nM | Cc1cc(-c2c(OCc3cccc(C(C)(C)NCCO)n3)nc(N)nc2-c2ccc(F)cc2)cc(C(F)F)n1 [Example 407, 2-((2-(6-(((2-amino-5-(2-(difluoromethyl)-6-methylpyridin-4-yl)-6-(4-fluorophenyl)pyrimidin-4-yl)oxy)methyl)pyridin-2-yl)propan-2-yl)amino)ethan-1-ol]
13 | – | – | 89.3 | – | 191 nM and 177 nM | Cc1cc(-c2c(OCc3cccc(CNCCO)n3)nc(N)nc2-c2ccc(F)cc2)cc(C(F)F)n1 [Example 418, 2-(((6-(((2-amino-5-(2-(difluoromethyl)-6-methylpyridin-4-yl)-6-(4-fluorophenyl)pyrimidin-4-yl)oxy)methyl)pyridin-2-yl)methyl)amino)ethan-1-ol]
14 | – | – | 87.8 | – | 470 nM and 311 nM | Cc1cc(-c2c(OCc3cccc(CNC(CO)CO)n3)nc(N)nc2-c2ccc(F)cc2)cc(C(F)F)n1 [Example 419, 2-(((6-(((2-amino-5-(2-(difluoromethyl)-6-methylpyridin-4-yl)-6-(4-fluorophenyl)pyrimidin-4-yl)oxy)methyl)pyridin-2-yl)methyl)amino)propane-1,3-diol]
15 | – | – | 59 | – | 342 nM and 210 nM | Cc1cc(-c2c(OCc3cccc(CNCC(N)=O)n3)nc(N)nc2-c2ccc(F)cc2)cc(C(F)F)n1 [Example 433, 2-(((6-(((2-amino-5-(2-(difluoromethyl)-6-methylpyridin-4-yl)-6-(4-fluorophenyl)pyrimidin-4-yl)oxy)methyl)pyridin-2-yl)methyl)amino)acetamide]
16 | – | – | 43.6 | 26.2 | 20 nM and 70 nM and 68 nM and 141 nM | CCC(CC)(C(=O)O)c1cccc(COc2nc(N)nc(-c3ccc(F)cc3)c2-c2cc(C)nc(C(F)F)c2)n1 [Example 398, 2-(6-(((2-amino-5-(2-(difluoromethyl)-6-methylpyridin-4-yl)-6-(4-fluorophenyl)pyrimidin-4-yl)oxy)methyl)pyridin-2-yl)-2-ethylbutanoic acid]
17 | – | – | 38.7 | – | 60 nM and 44 nM | Cc1cc(-c2c(OCc3cccc(C(C)(C)NC(CO)CO)n3)nc(N)nc2-c2ccc(F)cc2)cc(C(F)F)n1 [Example 417, 2-((2-(6-(((2-amino-5-(2-(difluoromethyl)-6-methylpyridin-4-yl)-6-(4-fluorophenyl)pyrimidin-4-yl)oxy)methyl)pyridin-2-yl)propan-2-yl)amino)propane-1,3-diol]
18 | – | – | 33.3 | 29 | 35 nM and 74 nM and 23 nM | CNC(=O)OCc1cccc(COc2nc(N)nc(-c3ccc(F)cc3)c2-c2cc(C)nc(C(F)F)c2)n1 [Example 425, (6-(((2-amino-5-(2-(difluoromethyl)-6-methylpyridin-4-yl)-6-(4-fluorophenyl)pyrimidin-4-yl)oxy)methyl)pyridin-2-yl)methyl methylcarbamate]
19 | – | – | 16 | – | 97 nM and 152 nM and 129 nM | CNC(=O)NCc1cccc(COc2nc(N)nc(-c3ccc(F)cc3)c2-c2cc(C)nc(C(F)F)c2)n1 [Example 415, 1-((6-(((2-amino-5-(2-(difluoromethyl)-6-methylpyridin-4-yl)-6-(4-fluorophenyl)pyrimidin-4-yl)oxy)methyl)pyridin-2-yl)methyl)-3-methylurea]
